Assay results: patent US12318375B2, “Method of treatment with tradipitant” (Vanda Pharmaceuticals Inc., priority 2015, dated 2025)

What was measured:
[1] = test system: chronic pruritus in patients with atopic dermatitis; experiment: Phase II proof of concept clinical study VP-VLY-686-2101: efficacy on pruritus measures; assay type: in vivo, human; settings: for VAS Average change (primary): tradipitant 100 mg qd oral in the evening
Protocol: A phase II proof of concept clinical study (Study ID VP-VLY-686-2101, “Proof of Concept of VLY-686 in Subjects With Treatment-Resistant Pruritus Associated With Atopic Dermatitis”) was conducted, investigating the safety and efficacy of tradipitant as a monotherapy in the treatment of chronic pruritus in patients with atopic dermatitis.
In the study, patients with a Visual Analog Scale (VAS) score of greater than 70 mm during one of the two days preceding inclusion into the study were randomized to receive orally either 100 mg of tradipitant (N=34) or placebo (N=35) once a day in the evening. In the tradipitant arm of the study, tradipitant was orally administered to patients in capsules with standard excipients in an amount of 100 mg in the evening. Clinical assessments were made after 3 or 4 weeks of daily treatment, or at both 3 weeks and 4 weeks, each assessment being done in the morning of the day after last treatment or in the afternoon of the day after last treatment. The tradipitant was administered in an immediate release form comprising tradipitant and pharmaceutically acceptable excipients in a capsule. The tradipitant particle size was approximately: D10: <5 um, D50: <10 um, and D90: <25 um, wherein D10 means that 10% of the particles are of the indicated mean particle size, D50 means that 50% of the particles are of the indicated mean particle size, and D90 means that 90% of the particles are of the indicated mean particle size.
Baseline VAS scores were 76.1 and 77.2 for the tradipitant and placebo arms respectively. Efficacy was evaluated through a number of clinical research instruments. In addition, at the time of efficacy evaluation blood samples were collected for PK analysis in order to determine the plasma levels of tradipitant.

[2] = Example 2: plasma concentration of tradipitant in healthy subjects (85 mg qd, then Q12H); assay type: in vivo, human
Protocol: In one study, healthy subject participants were orally administered 85 mg tradipitant on study day 3, and then 85 mg tradipitant Q12H on study days 4-16. Plasma concentration levels of tradipitant were measured on each of day 3, day 7, and day 11.
This study illustrated that administration of 85 mg tradipitant qd (on day 3) produced an average plasma concentration over hours 0-12 that was about 50% of the plasma concentration observed in the PM group in Example 1. On days 7 and 11, the average plasma concentration over hours 0-12 following administration of 85 mg bid (specifically, Q12H) tradipitant was about 150% of the plasma concentration observed in the PM group in Example 1. The average plasma concentration over hours 0-12 at each point was determined by dividing the AUC for hours 0-12 (in (hr.)×(ng/mL)) by 12 hours.

O=C(c1ccccc1Cl)c1cccnc1-c1nnn(Cc2cc(C(F)(F)F)cc(C(F)(F)F)c2)c1-c1ccncc1 [Tradipitant, {2-[1-(3,5-Bistrifluoromethylbenzyl)-5-pyridin-4-yl-1H-[1,2,3]triazol-4-yl]-pyridin-3-yl}-(2-chlorophenyl)-methanone]
endpoints that correspond to the underlying disease (SKINDEX, SCORAD objective, EASI and DLQI) compared with placebo ([1]; 100 mg qd, 4-week study): did not show any significant difference from placebo
VAS Average change (primary) ([1]; AM group (morning assessment), N = 18, after 3 or 4 weeks): −54
CGIC, Diff tradipitant vs placebo ([1]; AM group, 100 mg qd): −1.15
DLQI change, Diff tradipitant vs placebo ([1]; AM group, 100 mg qd): 0.35
PBI, Diff tradipitant vs placebo ([1]; AM group, 100 mg qd): 0.74
SCORAD change, Diff tradipitant vs placebo ([1]; AM group, 100 mg qd): −5.23
VAS Worst change, Diff tradipitant vs placebo ([1]; AM group, 100 mg qd): −21.9
VRS change, Diff tradipitant vs placebo ([1]; AM group, 100 mg qd): −0.79
PBI ([1]; AM group, 100 mg qd, N = 18): 1.47
VAS Average change, Diff tradipitant vs placebo ([1]; AM group, 100 mg qd, tradipitant N = 18 vs placebo N = 17): −23.7
VAS Average change (primary) ([1]; PM group (afternoon assessment), N = 13, after 3 or 4 weeks): −28.8
CGIC, Diff tradipitant vs placebo ([1]; PM group, 100 mg qd): 0.19
DLQI change, Diff tradipitant vs placebo ([1]; PM group, 100 mg qd): −1.89
PBI, Diff tradipitant vs placebo ([1]; PM group, 100 mg qd): −0.39
SCORAD change, Diff tradipitant vs placebo ([1]; PM group, 100 mg qd): 0.88
VAS Worst change, Diff tradipitant vs placebo ([1]; PM group, 100 mg qd): 8.99
VRS change, Diff tradipitant vs placebo ([1]; PM group, 100 mg qd): −0.13
efficacy analysis of pruritus measures compared with placebo ([1]; PM group, 100 mg qd): no significant differences between tradipitant and placebo
PBI ([1]; PM group, 100 mg qd, N = 13): 1.01
VAS Average change, Diff tradipitant vs placebo ([1]; PM group, 100 mg qd, tradipitant N = 13 vs placebo N = 11): 5.82
VAS change from baseline compared with placebo (pre-specified primary endpoint) ([1]; all patients, 100 mg qd): no statistical difference from placebo
average plasma concentration over hours 0-12 (AUC 0-12 divided by 12 hours) relative to PM group in Example 1 ([2]; day 3, 85 mg qd oral): about 50%
average plasma concentration over hours 0-12 (AUC 0-12 divided by 12 hours) relative to PM group in Example 1 ([2]; days 7 and 11, 85 mg bid (Q12H) oral): about 150%
